Assay [1] relates to AgORco+AgOR10. The assay can be described thus: whole-cell patch clamp, HEK293 cells expressing AgORco+AgOR10. Format: cell-based, Anopheles gambiae. To be noted: for whole-cell currents: AgORco+AgOR10 cells, clamped at −60 mV. How it is done:
(§1) Currents from OR-expressing HEK293 cells were amplified with an Axopatch 200b Amplifier (Axon Instruments) and digitized through a Digidata 1322A (Axon Instruments). Electrophysiological data was recorded and analyzed using pCLAMP 10 (Axon Instruments). Electrodes were fabricated from quartz tubing (Sutter Instruments) and pulled to 4-6 MΩ for whole cell recording. Electrodes were filled with internal solution (120 mM KCl, 30 mM D-glucose, 10 mM HEPES, 2 mM MgCl2, 1.1 mM EGTA, and 0.1 CaCl2 (pH 7.35, 280 mOsm). External (bath) solution contained 130 mM NaCl, 34 mM D-glucose, 10 mM HEPES, 1.5 mM CaCl2, 1.3 mM KH2PO4, and 0.5 MgSO4 (pH 7.35, 300 mOsm). Compounds were diluted in external solution and locally perfused to the recording cell using Perfusion Pencil (Automate Scientific) and controlled by a ValveLink 8.2 controller (Automate Scientific). Whole cell recordings were sampled at 10 kHz and filtered at 5 kHz. Outside-out patches were obtained using 10-15MΩ electrodes pulled from standard glass capillaries (World Precision Instruments) and fire-polished with an MF-830 micro forge (Narishige). Single channel recordings were sampled at 20 kHz. Recordings were reduced to 1 kHz and low-pass filtered at 500 Hz for display and analysis using QuB (SUNY at Buffalo).
(§2) To test the hypothesis that VUAA1 directly agonized AgORco, whole-cell patch clamp responses were examined in AgORco+AgOR10 expressing cells as well HEK293 cells stably expressing AgORco alone. […] The VUAA1-dependent currents in AgORco+AgOR10 cells resembled those resulting from application of benzaldehyde, an orthosteric agonist of AgOR10 (FIG. 3C) (Wang, 2010; Carey, 2010). AgORco+AgOR10 cells were more sensitive to VUAA1 than AgORco cells, producing inward currents at −5.0 log M, a concentration at which AgORco had no response. […] To investigate the specificity of VUAA1 agonism, the inventors transiently transfected HEK cells with the AgORco orthologs of Drosophila melanogaster and Heliothis virescens, DmOR83b and HvOR2 respectively.

Assay [2] concerns the target T1, AgORco (Anopheles gambiae, UniProt Q7QCC7).
T1 construct: expressed in transfected cells
T1 sequence (Q7QCC7 1-478): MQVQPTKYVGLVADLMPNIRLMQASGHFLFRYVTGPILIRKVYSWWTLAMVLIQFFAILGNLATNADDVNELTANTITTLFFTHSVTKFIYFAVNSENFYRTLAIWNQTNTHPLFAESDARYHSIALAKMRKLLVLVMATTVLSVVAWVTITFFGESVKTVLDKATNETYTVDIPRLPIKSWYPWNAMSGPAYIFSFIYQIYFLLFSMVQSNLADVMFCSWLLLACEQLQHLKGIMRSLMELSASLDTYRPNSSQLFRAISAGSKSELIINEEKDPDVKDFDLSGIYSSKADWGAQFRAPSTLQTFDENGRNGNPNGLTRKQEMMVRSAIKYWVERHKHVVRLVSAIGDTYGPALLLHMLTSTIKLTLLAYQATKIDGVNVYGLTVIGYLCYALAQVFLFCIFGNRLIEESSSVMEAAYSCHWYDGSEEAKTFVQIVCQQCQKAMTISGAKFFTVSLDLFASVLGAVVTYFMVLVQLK
The assay can be described thus: whole-cell patch clamp, HEK293 cells stably expressing AgORco alone. Format: cell-based. To be noted: for whole-cell currents: AgORco alone cells, clamped at −60 mV. How it is done: as §1, §2
Background: Patch clamp records ionic current or voltage across a cell membrane.

Assay [3] addresses T2, rat transient receptor potential vanilloid 1 (rTRPV1) (Rattus norvegicus, UniProt O35433).
T2 construct: expressed in transfected cells
Nature of the assay: whole-cell patch clamp, HEK cells stably expressing rTRPV1. It is filed as cell-based.
Description: To determine the broad-spectrum specificity of VUAA1, the inventors tested VUAA1 on another non-selective cation channel, transient receptor potential vanilloid receptor 1 (TRPV1) (Caterina, 1997; Bohlen, 2010).

The test system of assay [4] is Un-transfected HEK293 cells. The assay can be described thus: whole-cell patch clamp, control HEK293 cells (un-transfected or GFP alone). It is filed as cell-based, human. How it is done:
as §1

T2 sequence (O35433 whole entry): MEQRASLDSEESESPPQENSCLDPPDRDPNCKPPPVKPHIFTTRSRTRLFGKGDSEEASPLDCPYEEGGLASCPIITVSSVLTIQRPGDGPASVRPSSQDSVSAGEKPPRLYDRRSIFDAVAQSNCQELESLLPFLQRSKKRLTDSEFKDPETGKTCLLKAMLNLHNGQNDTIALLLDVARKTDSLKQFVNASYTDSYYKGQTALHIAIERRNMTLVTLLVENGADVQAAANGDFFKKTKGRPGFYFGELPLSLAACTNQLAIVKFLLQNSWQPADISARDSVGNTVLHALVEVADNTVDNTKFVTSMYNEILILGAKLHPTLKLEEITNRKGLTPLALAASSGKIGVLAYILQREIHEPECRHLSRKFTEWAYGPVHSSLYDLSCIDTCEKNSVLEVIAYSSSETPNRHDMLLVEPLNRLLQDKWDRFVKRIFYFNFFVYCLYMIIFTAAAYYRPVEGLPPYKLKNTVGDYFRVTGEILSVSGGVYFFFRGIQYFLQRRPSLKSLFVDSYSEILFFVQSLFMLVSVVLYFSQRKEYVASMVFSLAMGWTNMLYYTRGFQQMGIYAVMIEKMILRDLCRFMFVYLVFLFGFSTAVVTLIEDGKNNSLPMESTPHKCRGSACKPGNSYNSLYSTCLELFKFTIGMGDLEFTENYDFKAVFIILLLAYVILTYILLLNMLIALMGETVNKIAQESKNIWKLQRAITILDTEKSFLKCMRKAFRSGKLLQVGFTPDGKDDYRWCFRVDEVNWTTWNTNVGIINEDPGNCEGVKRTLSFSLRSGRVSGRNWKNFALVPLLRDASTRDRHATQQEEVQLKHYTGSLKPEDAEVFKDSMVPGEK

Turning to `Nc1ncnc2c1nc(Br)n2[C@@H]1O[C@@H]2COP(=O)(O)O[C@H]2[C@H]1O` [8-Br cAMP], the whole-cell currents entry in assay [1] and in assay [2] was “unable to evoke whole-cell currents” each time.

On to `Nc1nc2c(nc(Br)n2[C@@H]2O[C@@H]3COP(=O)(O)O[C@H]3[C@H]2O)c(=O)[nH]1` [8-Br cGMP], for which the whole-cell currents entry in assay [1] and in assay [2] was “unable to evoke whole-cell currents” throughout.

As for `COc1cc(CNC(=O)CCCC/C=C/C(C)C)ccc1O` [Capsaicin, reference compound], the whole-cell currents result in assay [3] is “elicited a robust response”.

For the compound `N.N.N.N.N.N.N.N.N.N.N.N.N.N.[Cl-].[Cl-].[Cl-].[Cl-].[Cl-].[Cl-].[O-2].[O-2].[Ru+3].[Ru+3].[Ru+4]` [RR, ruthenium red], in assay [1] (AgOrco+AgOR10 cells, agonist VUAA1), the “reduction of VUAA1-elicited currents” value is listed as 68.3±2.8%. In addition, the “reduction of benzaldehyde-elicited currents” value in assay [1] (AgOrco+AgOR10 cells, agonist benzaldehyde) is reported as 87.8±1.8%. In addition, in assay [2] (AgORco cells, agonist VUAA1), the “reduction of VUAA1 responses” value amounted to 79.4±4.0%.

For the compound `O=Cc1ccccc1` [benzaldehyde, reference compound], the whole-cell currents result in assay [1] is given as “concentration-dependent responses”; in assay [2], “only AgORco+AgOR10 cells responded to BA”. The “whole-cell currents in GFP alone cells” value in assay [4] (HEK cells transfected with GFP alone) is “no currents”. Moreover, the “whole-cell currents in control cells” value in assay [4] (control / un-transfected HEK293 cells) was “did not respond”.

For the origin of these results see patent US10091997B2, “Composition for inhibition of insect host sensing” (Vanderbilt University, priority 2010, dated 2018).
